The values that follow come from the NIST ThermoML archive (doi:10.1016/j.jct.2013.09.026).

The conditions of this series: 298.15 K; 101.33 kPa; Liquid; Vibrating tube method.

Numbers after ± are expanded uncertainties.

Turning to `CCC(C)=O` [butanone], the mass density is on record as 799.969 ± 0.17 kg/m3.

Turning to `CCCO` [propan-1-ol], the mass density amounted to 799.656 ± 0.17 kg/m3.

As to `CCN(CC)CC` [triethylamine], the mass density is 722.814 ± 0.19 kg/m3.

One may read the mass density as mass per unit of volume.
